Read-outs that look alike come from different tables or passages of the source.
Tests used:
CDK1/Cyclin B = target: T1, CDK1/Cyclin B (Homo sapiens, UniProt P06493); experiment: Enzymatic assay for CDK1 (FRET based LANCE Ultra kinase assay); assay type: biochemical
T1 construct: purchased Invitrogen PR4768C
How it was run: (§1)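 TR-FRET (LANCE Ultra) kinase assay at ATP Km, ULight-MBP peptide substrate (68 nM), 8-dose 4-fold compound series in DMSO. Enzymes: […]; 60 min at 23° C., stopped with EDTA plus Eu-anti-phospho-MBP antibody, read 665/615 nm after 60 min.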

CDK2/Cyclin A = target: T2, CDK2/Cyclin A (Homo sapiens, UniProt P24941); experiment: Enzymatic assay for CDK2 (FRET based LANCE Ultra kinase assay); assay type: biochemical
T2 construct: purchased Invitrogen PV6290
How it was run: as §1

CDK5/p25 = target: T3, CDK5/p25 (Homo sapiens, UniProt Q00535); experiment: Enzymatic assay for CDK5 (FRET based LANCE Ultra kinase assay); assay type: biochemical
T3 construct: purchased Invitrogen PR8543B
T3 sequence (Q00535 whole entry): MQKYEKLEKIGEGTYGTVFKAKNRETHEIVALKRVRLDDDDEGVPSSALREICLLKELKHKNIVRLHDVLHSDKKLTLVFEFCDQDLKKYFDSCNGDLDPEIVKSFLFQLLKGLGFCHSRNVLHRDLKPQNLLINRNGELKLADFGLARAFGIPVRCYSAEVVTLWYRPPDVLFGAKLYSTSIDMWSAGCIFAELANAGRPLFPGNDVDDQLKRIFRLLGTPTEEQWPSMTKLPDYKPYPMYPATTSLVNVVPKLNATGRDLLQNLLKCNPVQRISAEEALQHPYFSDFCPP
T3 sequence (Q15078 99-307 partner limits assumed): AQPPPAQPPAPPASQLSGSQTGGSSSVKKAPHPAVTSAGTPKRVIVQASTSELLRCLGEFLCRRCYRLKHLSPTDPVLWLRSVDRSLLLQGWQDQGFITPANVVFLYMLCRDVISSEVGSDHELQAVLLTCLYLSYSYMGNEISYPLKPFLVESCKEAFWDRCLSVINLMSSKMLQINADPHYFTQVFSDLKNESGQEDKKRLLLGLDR
How it was run: as §1

CDK7/Cyclin H/MNAT1 = target: T4, CDK7/Cyclin H/MNAT1 (Homo sapiens, UniProt P50613); experiment: Enzymatic assay for CDK7 (FRET based LANCE Ultra kinase assay); assay type: biochemical
T4 construct: purchased Invitrogen PR6749B
T4 sequence (P50613 whole entry): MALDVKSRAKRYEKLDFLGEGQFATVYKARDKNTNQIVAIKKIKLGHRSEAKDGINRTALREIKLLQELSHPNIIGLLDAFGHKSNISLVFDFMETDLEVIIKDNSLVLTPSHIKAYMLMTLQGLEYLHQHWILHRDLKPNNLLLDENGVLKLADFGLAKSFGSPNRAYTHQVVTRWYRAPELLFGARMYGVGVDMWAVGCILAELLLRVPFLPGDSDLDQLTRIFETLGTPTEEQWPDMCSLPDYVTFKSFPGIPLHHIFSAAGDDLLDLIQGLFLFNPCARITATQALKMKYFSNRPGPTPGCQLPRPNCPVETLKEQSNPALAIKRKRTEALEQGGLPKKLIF
T4 sequence (P51946 whole entry partner): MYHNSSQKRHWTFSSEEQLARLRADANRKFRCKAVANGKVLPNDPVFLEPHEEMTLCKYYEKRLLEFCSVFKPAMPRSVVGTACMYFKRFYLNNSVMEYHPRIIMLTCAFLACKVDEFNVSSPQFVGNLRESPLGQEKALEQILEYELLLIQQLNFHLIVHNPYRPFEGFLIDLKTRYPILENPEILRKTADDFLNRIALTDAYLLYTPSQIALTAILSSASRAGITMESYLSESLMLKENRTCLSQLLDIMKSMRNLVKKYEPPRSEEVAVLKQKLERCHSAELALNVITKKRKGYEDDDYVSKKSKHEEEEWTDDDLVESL
T4 sequence (P51948 whole entry partner): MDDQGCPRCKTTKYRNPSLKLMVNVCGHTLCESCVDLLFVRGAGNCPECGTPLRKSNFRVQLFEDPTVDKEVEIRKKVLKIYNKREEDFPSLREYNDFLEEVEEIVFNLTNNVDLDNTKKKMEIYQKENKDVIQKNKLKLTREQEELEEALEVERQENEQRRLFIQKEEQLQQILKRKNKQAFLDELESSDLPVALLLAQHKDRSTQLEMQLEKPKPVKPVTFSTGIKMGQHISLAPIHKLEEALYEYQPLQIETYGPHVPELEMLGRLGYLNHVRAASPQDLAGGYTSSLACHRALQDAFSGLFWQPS
How it was run: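 Inhibition was measured at Km ATP by time-resolved FRET between a Eu anti-phospho antibody and a phosphorylated ULight peptide. The enzyme was the purified CDK7/cyclin complex, and data were curve-fitted.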

H460 = experiment: Cellular H460 viability assay (CellTiter-Glo, 72 hours); assay type: cell-based; conditions: Homo sapiens, NCI-H460
How it was run: (§2)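 CellTiter-Glo luminescence read in duplicate after 72 h compound exposure (37 °C, 5% CO2); DMSO-only control, final DMSO under 0.1%.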

MOLT-4 = experiment: Cellular MOLT-4 viability assay (CellTiter-Glo, 72 hours); assay type: cell-based; conditions: Homo sapiens, MOLT4 viability assay
How it was run: as §2

A2780 = experiment: Cellular A2780 viability assay (CellTiter-Glo, 72 hours); assay type: cell-based; conditions: Homo sapiens
How it was run: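 Compound exposure lasted 72 h at 37° C, 5% CO2, over 0.0015–10 uM, DMSO kept under 0.1%, with dosing 24 h after seeding. Seeding: A2780 1×10^3, OVCAR-3 5×10^3, MM.1S 1×10^4 cells/well in 10% FBS RPMI-1640. Duplicate CellTiter-Glo luminescence readout.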

MV4-11 = experiment: Cellular MV4-11 viability assay (CellTiter-Glo, 72 hours); assay type: cell-based; conditions: Homo sapiens
How it was run: as §2

RPMI-8226 = experiment: Cellular RPMI-8226 viability assay (CellTiter-Glo, 72 hours); assay type: cell-based; conditions: Homo sapiens
How it was run: as §2

HCT116 = experiment: Cellular HCT116 viability assay (CellTiter-Glo, 72 hours); assay type: cell-based; conditions: Homo sapiens, HCT-116
How it was run: as §2

[1] = read-out: CDK1 enzymatic activity (IC50 range)
[2] = read-out: CDK2 enzymatic activity (IC50 range)
[3] = read-out: CDK5 enzymatic activity (IC50 range)
[4] = read-out: CDK7 enzymatic activity (IC50 range)

T1 sequence (P06493 whole entry): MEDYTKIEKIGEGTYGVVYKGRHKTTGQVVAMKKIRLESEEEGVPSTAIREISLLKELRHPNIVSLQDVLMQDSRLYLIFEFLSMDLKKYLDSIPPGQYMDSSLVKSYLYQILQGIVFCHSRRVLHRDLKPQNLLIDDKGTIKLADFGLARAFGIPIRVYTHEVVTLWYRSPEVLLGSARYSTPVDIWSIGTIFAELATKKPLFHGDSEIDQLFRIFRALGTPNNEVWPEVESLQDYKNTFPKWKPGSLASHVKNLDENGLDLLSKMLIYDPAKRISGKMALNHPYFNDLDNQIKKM
T1 sequence (P14635 whole entry partner): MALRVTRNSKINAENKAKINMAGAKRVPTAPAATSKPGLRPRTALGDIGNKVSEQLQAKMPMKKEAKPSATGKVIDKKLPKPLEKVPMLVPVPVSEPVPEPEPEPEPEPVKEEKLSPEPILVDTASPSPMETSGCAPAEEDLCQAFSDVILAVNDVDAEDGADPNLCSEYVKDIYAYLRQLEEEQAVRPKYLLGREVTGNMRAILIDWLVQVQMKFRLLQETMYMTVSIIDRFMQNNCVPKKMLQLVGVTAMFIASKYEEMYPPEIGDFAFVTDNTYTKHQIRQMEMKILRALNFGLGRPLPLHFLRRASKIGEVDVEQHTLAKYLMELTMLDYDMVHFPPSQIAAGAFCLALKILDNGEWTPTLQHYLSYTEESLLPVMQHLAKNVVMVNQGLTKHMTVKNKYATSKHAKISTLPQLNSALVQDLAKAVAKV

| SMILES | IC50 (CDK1/Cyclin B; [1]) [nM] | IC50 (CDK2/Cyclin A; [2]) [nM] | IC50 (CDK5/p25; [3]) [nM] | CDK1/CDK7: Selectivity of CDK7 inhibition over CDK1 inhibition (CDK7/Cyclin H/MNAT1; CDK7 over CDK1) | CDK2/CDK7: Selectivity of CDK7 inhibition over CDK2 inhibition (CDK7/Cyclin H/MNAT1; CDK7 over CDK2) | CDK5/CDK7: Selectivity of CDK7 inhibition over CDK5 inhibition (CDK7/Cyclin H/MNAT1; CDK7 over CDK5) | IC50 (CDK7/Cyclin H/MNAT1; [4]) [nM] | IC50 (H460) [nM] | IC50 (MOLT-4) [nM] | IC50 (A2780) [nM] | IC50 (MV4-11) [nM] | IC50 (RPMI-8226) [nM] | IC50 (CDK1/Cyclin B; read-out: CDK1 enzymatic activity (IC50 activity range)) [nM] | IC50 (CDK2/Cyclin A; read-out: CDK2 enzymatic activity (IC50 activity range)) [nM] | IC50 (CDK5/p25; read-out: CDK5 enzymatic activity (IC50 activity range)) [nM] | CDK1/CDK7: Selectivity of CDK7 inhibition over CDK1 inhibition (CDK7/Cyclin H/MNAT1; CDK1/CDK7) | CDK2/CDK7: Selectivity of CDK7 inhibition over CDK2 inhibition (CDK7/Cyclin H/MNAT1; CDK2/CDK7) | CDK5/CDK7: Selectivity of CDK7 inhibition over CDK5 inhibition (CDK7/Cyclin H/MNAT1; CDK5/CDK7) | IC50 (CDK7/Cyclin H/MNAT1; read-out: CDK7 enzymatic activity (IC50 activity range)) [nM] | IC50 (HCT116) [nM] |
| --- | --- | --- | --- | --- | --- | --- | --- | --- | --- | --- | --- | --- | --- | --- | --- | --- | --- | --- | --- | --- |
| CC(C)c1cnn2c(NCc3ccccc3-n3cccn3)nc(N3CCC(O)CC3)nc12 [Compound 4] | > 1000 | 100 to 1000 | 100 to 1000 | B (B=less than 200 fold, but greater than 20 fold) | B (B=less than 200 fold, but greater than 20 fold) | B (B=less than 200 fold, but greater than 20 fold) | < 100 | 1000 to 10000 | > 10000 | 1000 to 10000 | – | – | – | – | – | – | – | – | – | – |
| CC(C)c1cnn2c(NCc3ccccc3-c3cc4ccccc4[nH]3)nc(N3CCC(N)(CO)CC3)nc12 [Compound 129] | > 1000 | 100 to 1000 | 100 to 1000 | A (A=greater than 200 fold) | A (A=greater than 200 fold) | B (B=less than 200 fold, but greater than 20 fold) | < 100 | < 1000 | – | ≤ 1000 | < 1000 | < 1000 | – | – | – | – | – | – | – | – |
| CC(C)c1cnn2c(NCc3ccccc3-n3cccn3)nc(N3CCNCC3)nc12 [Compound 2] | > 1000 | 100 to 1000 | 100 to 1000 | A (A=greater than 200 fold) | B (B=less than 200 fold, but greater than 20 fold) | B (B=less than 200 fold, but greater than 20 fold) | 100 to 1000 | < 1000 | 1000 to 10000 | ≤ 1000 | < 1000 | – | – | – | – | – | – | – | – | – |
| CC(C)c1cnn2c(NCc3ccccc3-c3cc4ccccc4[nH]3)nc(NCC3CNCCO3)nc12 (racemic) [Compound 274] | – | – | – | – | – | – | – | < 1000 | – | ≤ 1000 | < 1000 | 1000 to 10000 | > 1000 | > 1000 | 100 to 1000 | A (A=greater than 200 fold) | B (B=less than 200 fold, but greater than 20 fold) | B (B=less than 200 fold, but greater than 20 fold) | < 100 | – |
| Cc1cccc(-n2ccc(C(C)(C)O)n2)c1CNc1nc(N2CCC(N)CC2)nc2c(C(C)C)cnn12 [Compound 230] | > 1000 | > 1000 | > 1000 | A (A=greater than 200 fold) | A (A=greater than 200 fold) | A (A=greater than 200 fold) | < 100 | < 1000 | – | ≤ 1000 | < 1000 | – | – | – | – | – | – | – | – | < 1000 |
| CC(C)c1cnn2c(NCc3ccccc3-c3cc4ccccc4[nH]3)nc(N3CCOC(CN)C3)nc12 (racemic) [Compound 130] | > 1000 | 100 to 1000 | 100 to 1000 | A (A=greater than 200 fold) | B (B=less than 200 fold, but greater than 20 fold) | B (B=less than 200 fold, but greater than 20 fold) | < 100 | < 1000 | – | ≤ 1000 | < 1000 | < 1000 | – | – | – | – | – | – | – | – |
| CC(C)c1cnn2c(NCc3ccccc3-c3ccc4ccccc4n3)nc(NCCC(O)CN)nc12 (racemic) [Compound 234] | > 1000 | > 1000 | > 1000 | A (A=greater than 200 fold) | A (A=greater than 200 fold) | A (A=greater than 200 fold) | < 100 | < 1000 | – | ≤ 1000 | < 1000 | – | – | – | – | – | – | – | – | < 1000 |
| CC(C)c1cnn2c(NCc3c(Cl)cccc3-c3cccc(C(C)(C)O)n3)nc(N3CCC(N)CC3)nc12 [Compound 241] | > 1000 | > 1000 | > 1000 | A (A=greater than 200 fold) | A (A=greater than 200 fold) | B (B=less than 200 fold, but greater than 20 fold) | < 100 | < 1000 | – | ≤ 1000 | < 1000 | – | – | – | – | – | – | – | – | < 1000 |
| CC(C)c1cnn2c(NCc3c(Cl)cccc3-n3ccc(C(C)(C)O)n3)nc(N3CCC(O)(CN)CC3)nc12 [Compound 238] | > 1000 | > 1000 | > 1000 | A (A=greater than 200 fold) | A (A=greater than 200 fold) | A (A=greater than 200 fold) | < 100 | < 1000 | – | ≤ 1000 | < 1000 | – | – | – | – | – | – | – | – | < 1000 |
| CC(C)c1cnn2c(NCc3ccccc3-n3ccc(C(C)(C)O)n3)nc(NC[C@H]3CCNC[C@@H]3O)nc12 [Compound 233] | > 1000 | 100 to 1000 | > 1000 | A (A=greater than 200 fold) | B (B=less than 200 fold, but greater than 20 fold) | A (A=greater than 200 fold) | < 100 | < 1000 | – | ≤ 1000 | < 1000 | – | – | – | – | – | – | – | – | < 1000 |
